Reference: article PMC12683216, “Using High‐Throughput Screening to Identify Crosslinking Peptides That Control Cell‐Mediated Matrix Degradation” (Advanced Healthcare Materials, 2025)
Where a SMILES comes first, the peptide text is derived from it. [ ]: non-standard residue; d: D form. βAla = NCCC(=O)O

Columns and labels:
hUVECs = test: Quantification of peptide and hydrogel degradation in cell-laden PEG hydrogels (Cy3/FAM fluorescence); assay type: in vitro ADME, human
Source text: (§1) Next we designed systems to quantify the amount of crosslinking peptide degradation and bulk hydrogel degradation during culture. We synthesized both the KLVAD‐LM peptide and the PanMMP peptide with an N‐terminal Cy3 and a C‐terminal azide to click into the PEG hydrogel network, and also coupled fluorescein (FAM) to the hydrogel using a non‐degradable linker (Figure 5A). Proteolytic cleavage of the crosslinking peptides will liberate the Cy3 from the PEG hydrogel, and bulk erosion of the hydrogel reduces the amount of PEG and FAM. At desired time points, the gels were completely degraded with trypsin, and the fluorescence intensity of Cy3 and FAM was measured to quantify peptide and hydrogel degradation during culture (Figure 5B).
(§2) Figure 5 The rate of degradation of crosslinking peptides in the hydrogels was quantified using fluorescence. A) A fraction of PEG arms were functionalized with PanMMP and KLVAD‐LM peptides that were labeled with […] on their N‐terminus and conjugated to the PEG hydrogel matrix on their C‐terminus to quantify crosslinker degradation. Fluorescein (FAM) was also conjugated to the hydrogel through non‐degradable linkers to quantify bulk hydrogel degradation. […] The amounts of remaining Cy3 and FAM were quantified using fluorescence spectroscopy. […]

hMSCs = test: as above; assay type: in vitro ADME, human
Source text: as §1, §2

Compound: CSCC[C@H](NC(=O)[C@H](CC(C)C)NC(=O)[C@H](CC(=O)O)NC(=O)[C@H](C)NC(=O)[C@@H](NC(=O)[C@H](CC(C)C)NC(=O)[C@H](CCCCN)NC(=O)CCNC(C)=O)C(C)C)C(=O)N[C@@H](C)C(=O)N[C@@H](CO)C(=O)N[C@@H](C)C(=O)N[C@@H](CCC(=O)O)C(=O)NCCC(N)=O [KLVAD-LM] (Ac-[βAla]KLVADLMASAE[βAla]-NH2)
- degradation within hydrogels relative to that seen with the PanMMP peptide, hUVECs (hUVECs): 40–60%
- degradation within hydrogels relative to that seen with the PanMMP peptide, hMSCs (hMSCs): 40–60%
